Experimental data as given in patent US11021521B2, “Pore-modified gram-negative bacteria and uses thereof” (priority 2015, dated 2021).
In brackets after ≈: the same amount, converted by molar mass. Read-outs that look alike come from different tables or passages of the source. Bridge positions count the residues as written; N and C are the ends. Square brackets hold non-standard residues; d marks the D form. Peptide text beside a SMILES is read from it. * marks the point of attachment. Ileψ(thiazoline)Cys = CC[C@H](C)[C@H](N)C1=N[C@H](C(=O)*)CS1; dOrn = NCCC[C@@H](N)C(=O)O

Experiments:
[1] = tested on: B. cepacia Bc-RHA (wild type, empty cassette); test: microbe, parasite or virus in culture; format: cell-based
[2] = tested on: A. baumannii Ab-ARA (wild type, empty cassette); test: microbe, parasite or virus in culture; format: cell-based; details: at least three independent measurements
[3] = tested on: P. aeruginosa PAO1-LAC (wild type, empty cassette); test: microbe, parasite or virus in culture; format: cell-based; details: at least three independent measurements
[4] = tested on: B. thailandensis BtΔ2-RHA-BtPore (efflux-deficient, hyperporinated); test: microbe, parasite or virus in culture; format: cell-based
[5] = tested on: P. aeruginosa PaΔ3-LAC-EcPore (efflux-deficient, hyperporinated); test: microbe, parasite or virus in culture; format: cell-based; details: for MIC: PaΔ3-LAC-EcPore, at least three independent measurements
[6] = tested on: B. thailandensis Bt-RHA-BtPore (hyperporinated); test: microbe, parasite or virus in culture; format: cell-based
[7] = tested on: P. aeruginosa PaΔ3-LAC (efflux-deficient); test: microbe, parasite or virus in culture; format: cell-based; details: at least three independent measurements
[8] = tested on: A. baumannii AbΔ3-ARA-EcPore (efflux-deficient, hyperporinated); test: microbe, parasite or virus in culture; format: cell-based; details: for MIC: AbΔ3-ARA-EcPore, at least three independent measurements
[9] = tested on: P. aeruginosa PAO1-LAC-EcPore (hyperporinated); test: microbe, parasite or virus in culture; format: cell-based; details: for MIC: PAO1-LAC-EcPore, at least three independent measurements; for Fold decrease of MIC (potentiation) by hyperporination: Pae: PAO1-LAC-EcPore vs parent
[10] = tested on: A. baumannii AbΔ3-ARA (efflux-deficient); test: microbe, parasite or virus in culture; format: cell-based; details: AbΔ3-ARA, at least three independent measurements
[11] = tested on: B. thailandensis BtΔ2-RHA (efflux-deficient); test: microbe, parasite or virus in culture; format: cell-based
[12] = tested on: B. thailandensis Bt-RHA (wild type, empty cassette); test: microbe, parasite or virus in culture; format: cell-based
[13] = tested on: B. cepacia Bc-RHA-BtPore (hyperporinated); test: microbe, parasite or virus in culture; format: cell-based; details: for MIC: Bc-RHA-BtPore; for Fold decrease of MIC (potentiation) by hyperporination: Bc: Bc-RHA-BtPore vs parent
[14] = tested on: A. baumannii Ab-ARA-EcPore (hyperporinated); test: microbe, parasite or virus in culture; format: cell-based; details: for MIC: Ab-ARA-EcPore, at least three independent measurements; for Fold decrease of MIC (potentiation) by hyperporination: Abau: Ab-ARA-EcPore vs parent
[15] = tested on: B. thailandensis cells (Bt-RHA and derivatives)
[16] = tested on: A. baumannii cells (Ab-ARA and derivatives); test: Fluorescent probe uptake assay, A. baumannii strains; details: AbΔ3-ARA vs Ab-ARA, fluorescence
[17] = tested on: P. aeruginosa cells (PAO1-LAC and derivatives); test: Fluorescent probe uptake assay, P. aeruginosa strains; details: PΔ3-LAC-EcPore vs PAO1-LAC
[18] = Burkholderia cepacia, read-out: MIC
[19] = Acinetobacter baumannii, read-out: MIC
[20] = Pseudomonas aeruginosa, read-out: MIC

| Compound | MIC [1, 18] [mg/L] | MIC [2, 19] [mg/L] | MIC [3, 20] [mg/L] | MIC ([4]; Burkholderia thailandensis) [mg/L] | MIC [5, 20] [mg/L] | MIC ([6]; Burkholderia thailandensis) [mg/L] | MIC [7, 20] [mg/L] | MIC [8, 19] [mg/L] | MIC [9, 20] [mg/L] | MIC [10, 19] [mg/L] | MIC ([11]; Burkholderia thailandensis) [mg/L] | MIC ([12]; Burkholderia thailandensis) [mg/L] | MIC [13, 18] [mg/L] | MIC [14, 19] [mg/L] | MIC [3] [mg/L] | MIC [6] [mg/L] | MIC [1] [mg/L] | MIC [2] [mg/L] | MIC [4] [mg/L] | MIC [5] [mg/L] | further results |
| --- | --- | --- | --- | --- | --- | --- | --- | --- | --- | --- | --- | --- | --- | --- | --- | --- | --- | --- | --- | --- | --- |
| CC[C@H](C)[C@H](N)C1=N[C@H](C(=O)N[C@@H](CC(C)C)C(=O)N[C@H](CCC(=O)O)C(=O)N[C@H](C(=O)N[C@H]2CCCCNC(=O)[C@H](CC(N)=O)NC(=O)[C@@H](CC(=O)O)NC(=O)[C@H](Cc3cnc[nH]3)NC(=O)[C@@H](Cc3ccccc3)NC(=O)[C@H]([C@@H](C)CC)NC(=O)[C@@H](CCCN)NC2=O)[C@@H](C)CC)CS1 [Bacitracin] ({Ileψ(thiazoline)Cys}-L[dE]IK[dOrn]I[dF]H[dD]N; lactam 4-C) | > 1020 | 256 (≈ 180 µM) | > 1020 | 8 (≈ 5.62 µM) | 64 (≈ 45 µM) | 1020 (≈ 720 µM) | > 1020 | 64 (≈ 45 µM) | 64 (≈ 45 µM) | 512 (≈ 360 µM) | 1020 (≈ 720 µM) | > 1020 | 16 (≈ 11.2 µM) | 32 (≈ 22.5 µM) | – | – | – | – | – | – | – |
| C[C@@H](O)[C@H]1C(=O)N2C(C(=O)O)=C(S[C@@H]3CN[C@H](C(=O)N(C)C)C3)[C@H](C)[C@H]12 [Meropenem] | > 4 | 0.25 (≈ 0.652 µM) | 0.5 (≈ 1.3 µM) | 0.03 (≈ 0.0782 µM) | 0.03 (≈ 0.0782 µM) | 1 (≈ 2.61 µM) | 0.125 (≈ 0.326 µM) | 0.063 (≈ 0.164 µM) | 0.25 (≈ 0.652 µM) | 0.125 (≈ 0.326 µM) | 0.25 (≈ 0.652 µM) | 1 (≈ 2.61 µM) | 0.125 (≈ 0.326 µM) | 0.063 (≈ 0.164 µM) | – | – | – | – | – | – | Fold decrease of MIC (potentiation) by hyperporination [9]: 2-4 fold; Fold decrease of MIC (potentiation) by hyperporination [13]: > 32 fold; Fold decrease of MIC (potentiation) by hyperporination [14]: 2-4 fold |
| c1ccc(Nc2cccc3ccccc23)cc1 [NPN, N-phenyl-1-naphthylamine] | – | – | – | – | – | – | – | – | – | – | – | – | – | – | – | – | – | – | – | – | Change of intracellular accumulation of probe by inactivation of efflux [15]: higher levels of NPN accumulation than in hyperporinated cells; Change of intracellular accumulation of probe by inactivation of efflux [16]: higher levels of NPN accumulation than in hyperporinated cells; Probe levels in efflux-deficient hyperporinated cells vs parent [17]: only slightly higher than in PAO1-LAC cells |
| CO[C@@H]1[C@@H](OC(N)=O)[C@@H](O)[C@H](Oc2ccc3c(O)c(NC(=O)c4ccc(O)c(CC=C(C)C)c4)c(=O)oc3c2C)OC1(C)C [Novobiocin] | 8 (≈ 13.1 µM) | 3.1 (≈ 5.06 µM) | – | 0.008 (≈ 0.0131 µM) | 4 (≈ 6.53 µM) | 4 (≈ 6.53 µM) | 32 (≈ 52.2 µM) | 0.025 (≈ 0.0408 µM) | 64 (≈ 104 µM) | 0.025 (≈ 0.0408 µM) | 0.25 (≈ 0.408 µM) | 8 (≈ 13.1 µM) | 0.125 (≈ 0.204 µM) | 1.56 (≈ 2.55 µM) | 512 (≈ 836 µM) | – | – | – | – | – | Fold decrease of MIC (potentiation) by hyperporination [6]: 2 fold; Fold decrease of MIC (potentiation) by hyperporination [9]: 16-32 fold; Fold decrease of MIC (potentiation) by hyperporination [13]: 16-32 fold; Fold decrease of MIC (potentiation) by hyperporination [14]: 2 fold |
| Oc1cc(Cl)ccc1Oc1ccc(Cl)cc1Cl [Triclosan] | > 120 | 0.125 (≈ 0.432 µM) | 1020 (≈ 3540 µM) | 0.06 (≈ 0.207 µM) | 8 (≈ 27.6 µM) | 30 (≈ 104 µM) | 32 (≈ 111 µM) | 0.001 (≈ 0.00345 µM) | 1020 (≈ 3540 µM) | 0.002 (≈ 0.00691 µM) | 0.12 (≈ 0.414 µM) | 120 (≈ 414 µM) | 60 (≈ 207 µM) | 0.063 (≈ 0.218 µM) | – | – | – | – | – | – | – |
| CN[C@H](CC(C)C)C(=O)N[C@H]1C(=O)N[C@@H](CC(N)=O)C(=O)N[C@H]2C(=O)N[C@H]3C(=O)N[C@H](C(=O)N[C@H](C(=O)O)c4cc(O)cc(O)c4-c4cc3ccc4O)[C@H](O)c3ccc(c(Cl)c3)Oc3cc2cc(c3O[C@@H]2O[C@H](CO)[C@@H](O)[C@H](O)[C@H]2O[C@H]2C[C@](C)(N)[C@H](O)[C@H](C)O2)Oc2ccc(cc2Cl)[C@H]1O [Vancomycin] | > 1020 | 1020 (≈ 707 µM) | 1020 (≈ 707 µM) | 4 to 8 (≈ 2.76 to 5.52 µM) | 64 (≈ 44.2 µM) | – | 1020 (≈ 707 µM) | 128 (≈ 88.3 µM) | 128 (≈ 88.3 µM) | 1020 (≈ 707 µM) | > 1020 | > 1020 | 8 (≈ 5.52 µM) | 128 (≈ 88.3 µM) | – | 256 to 512 | – | – | – | – | – |
| Cc1c(N)nc([C@H](CC(N)=O)NC[C@H](N)C(N)=O)nc1C(=O)N[C@H](C(=O)N[C@H](C)[C@@H](O)[C@H](C)C(=O)N[C@H](C(=O)NCCC1=N[C@@H](c2nc(C(=O)NCCCCN=C(N)N)cs2)CS1)[C@@H](C)O)[C@@H](O[C@@H]1O[C@@H](CO)[C@@H](O)[C@H](O)[C@@H]1O[C@H]1O[C@H](CO)[C@@H](O)[C@H](OC(N)=O)[C@@H]1O)c1cnc[nH]1 [Zeocin] | – | – | – | – | – | – | – | – | – | – | – | – | – | – | 512 (≈ 359 µM) | 128 (≈ 89.7 µM) | >1024 | 8 (≈ 5.6 µM) | 0.12 (≈ 0.0841 µM) | 2 (≈ 1.4 µM) | Fold change of MIC by efflux inactivation plus hyperporination [4]: 4096 fold; Fold change of MIC by efflux inactivation plus hyperporination ([5]; PaeΔ3-LAC-Pore vs parent): 256 fold; MIC [7]: 16 mg/L (≈ 11.2 µM); Fold change of MIC by efflux inactivation plus hyperporination ([8]; AbΔ3-ARA-EcPore vs Ab-ARA): 64 fold; MIC [8]: 0.125 mg/L (≈ 0.0876 µM); MIC [9]: 32 to 64 mg/L; MIC [10]: 1 mg/L (≈ 0.701 µM); MIC [11]: 2 mg/L (≈ 1.4 µM); MIC [12]: 512 mg/L (≈ 359 µM); MIC [13]: 128 mg/L (≈ 89.7 µM); MIC [14]: 0.5 mg/L (≈ 0.35 µM) |
| Polymyxin B | – | – | – | – | – | – | – | – | – | – | – | – | – | – | 1.5 | >1024 | >1024 | 0.25 | 128 | 1.5 | MIC [7]: 1.5 mg/L; MIC [8]: 0.125 mg/L; MIC [9]: 1.5 mg/L; MIC [10]: 0.125 mg/L; MIC [11]: >1024 mg/L; MIC [12]: >1024 mg/L; MIC [13]: 512 mg/L; MIC [14]: 0.25 mg/L |
| Tobramycin [Tobramycin + Mg^2+] | – | – | – | – | – | – | – | – | – | – | – | – | – | – | 2 | 64 | 32 to 64 | 4 | 1 | 0.5 | MIC [7]: 0.5 mg/L; MIC [8]: 2 mg/L; MIC [9]: 1 mg/L; MIC [10]: 4 mg/L; MIC [11]: 1 mg/L; MIC [12]: 64 mg/L; MIC [13]: 4 mg/L; MIC [14]: 2 mg/L |
